The target of the test is T1, sensory rhodopsin II (NpSRII) (Natronomonas pharaonis, UniProt P42196).
T1 construct: gene sop2; His-tagged, expressed in E. coli BL21star from pET27a, Ni-NTA and size exclusion; crystallised in LCP
T1 sequence (P42196 1-239): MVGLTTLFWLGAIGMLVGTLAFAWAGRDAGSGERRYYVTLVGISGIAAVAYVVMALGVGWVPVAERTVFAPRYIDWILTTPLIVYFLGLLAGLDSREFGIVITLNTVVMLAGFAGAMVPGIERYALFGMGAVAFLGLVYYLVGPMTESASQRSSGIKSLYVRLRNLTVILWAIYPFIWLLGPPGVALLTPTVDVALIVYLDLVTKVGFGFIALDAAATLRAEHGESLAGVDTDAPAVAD
Kind of test: serial synchrotron X-ray crystallography. The format is binding. The note with it: covalent, room temperature.

In the case of `CC1=C(/C=C/C(C)=C/C=C/C(C)=C\C=O)C(C)(C)CCC1` [13-cis retinal], where the note is “Lys205, photoisomerized in situ from all-trans retinal, M-state at partial occupancy, continuous 488 nm illumination”, the “serial synchrotron X-ray crystallography” value is listed as “the population of the M-state was given a 13-cis retinal”. `CC1=C(/C=C/C(C)=C/C=C/C(C)=C/C=O)C(C)(C)CCC1` [all-trans retinal]: the “serial synchrotron X-ray crystallography” value (protonated Schiff base to Lys205, dark resting state, LCP microcrystals) is “the resting and O-state populations were refined with an all-trans retinal”.

The values above are taken from publication PMC11992208, “Structural basis for the prolonged photocycle of sensory rhodopsin II revealed by serial synchrotron crystallography” (Nature Communications, 2025).
